Results published in ChEMBL document CHEMBL3045064, “3D-QSAR of amino-substituted pyrido[3,2B]pyrazinones as PDE-5 inhibitors” (Med Chem Res, 2012).

Target: cGMP-specific 3',5'-cyclic phosphodiesterase (Homo sapiens, UniProt O76074)
Assay: Inhibition of PDE5 (unknown origin)

Row | Structure (SMILES) | IC50
1 | O=c1c(NCCN2CCOCC2)nc2ccc(-c3ccc(O)nc3)nc2n1CC1CCCCC1 | 537 nM
2 | Cc1noc(C)c1-c1ccc2nc(NCCN3CCOCC3)c(=O)n(CC3CCCCC3)c2n1 | 36.3 nM
3 | O=c1c(NCC2CCOCC2)nc2ccc(-c3ccncc3)nc2n1CC1CCCCC1 | 33.9 nM

The next molecules have a lower IC50 than those just listed; values first:

Row | IC50 | Structure (SMILES)
4 | 26.9 nM | COc1ccc(-c2ccc3nc(NCCN4CCOCC4)c(=O)n(CC4CCCCC4)c3n2)cn1
5 | 14.5 nM | COc1ccc(-c2ccc3nc(NCC(=O)N(C)C)c(=O)n(CC4CCCCC4)c3n2)cn1
6 | 2.88 nM | O=c1c(NCC2CCOCC2)nc2ccc(-c3cnc(O)nc3)nc2n1CC1CCCCC1
7 | 2.29 nM | COc1ccc(-c2ccc3nc(NCC4CCOCC4)c(=O)n(CC4CCCCC4)c3n2)cn1
